Test results: patent publication US20100317767A1, “FULLERENE FILM AND FULLERENE POLYMER BOTH PRODUCED FROM FULLERENE DERIVATIVE AND PROCESSES FOR PRODUCING THESE” (FRONTIER CARBON CORPORATION, priority 2006, published 2010)
Like-named read-outs stand apart in the source and are kept apart here.

Assays:
[1] = Solubility of fullerene derivatives in toluene (HPLC determination); format: physicochemical
Procedure: The solubility of a fullerene derivative can be determined, for example, by diluting a solution of the fullerene derivative with a good solvent, e.g., toluene, and examining the dilution with an analyzer such as, e.g., a high-performance liquid chromatograph (HPLC). More specifically, the procedure is as follows. A dilution of the fullerene derivative solution is analyzed with an HPLC having an ultraviolet/visible detector to determine that peak intensity for the fullerene derivative which is obtained from the absorbance of an ultraviolet light having a specific wavelength (e.g., 290 nm). The concentration of the fullerene derivative in the dilution of the fullerene derivative solution is determined from a calibration curve obtained beforehand from fullerene derivative standard solutions having known concentrations (prepared using the solvent used for diluting the fullerene derivative solution). This concentration value is multiplied by the dilution ratio to thereby determine the fullerene derivative concentration in the original fullerene derivative solution.

[2] = TG-DTA examination in air atmosphere; format: physicochemical; conditions: for weight loss (TG-DTA): 300° C. (in air), heating rate 10° C./min
Procedure: Compounds 1 to 6 synthesized in (1) to (6) above were examined by TG-DTA (thermogravimetric-differential thermal analysis) in order to investigate the behavior thereof in thermal decomposition. The examination was made with apparatus for both differential thermal analysis and thermogravimetry TG/DTA6200, manufactured by SII Nano Technology Inc., in an air atmosphere (flow rate, 200 mL/min) under the conditions of a heating rate of 10° C./min. In [60]fullerene, a large weight loss accompanied by heat generation began to be observed at around 500° C. This weight loss was due to oxidation/combustion. […] This large weight loss is thought to be attributable to the pyrolysis of the fullerene derivative.

[3] = TG examination in nitrogen atmosphere; format: physicochemical; conditions: for weight loss (TG-DTA): heating rate 10° C./min; for temperature of weight loss attributable to pyrolysis, compared with air: in nitrogen, result in words
Procedure: The examination was made with apparatus for both differential thermal analysis and thermogravimetry TG/DTA6200, manufactured by SII Nano Technology Inc., in a nitrogen atmosphere (flow rate, 200 mL/min) under the conditions of a heating rate of 10° C./min.

[4] = Washing of coating films with toluene before and after heat treatment; format: physicochemical; conditions: coating film
Procedure: A 5% by mass PGMEA solution of each of Compounds 1, 2, and 5 and a 5% by mass cyclohexanone solution of each of Compounds 3 and 4 were prepared. Each solution was applied to a glass substrate (50×50 mm) with a spin coater and dried at 100° C. Thereafter, the coating films were examined with an optical microscope. As a result, these coating films were ascertained to be even. These coating films were washed with toluene. As a result, the films were removed. It was thus ascertained that the coating films from which the solvent had been removed were soluble in toluene.
The coating films of Compounds 1 to 5 each formed on a glass substrate in (8) were placed in an electric furnace heated at 300° C. and heat-treated for 10 minutes in an air atmosphere.
The fullerene films obtained by the heat treatment of the coating films of Compounds 1 to 3 were examined by X-ray diffractometry (XRD) with RINT 2500, manufactured by Rigaku Corp. […] Measuring conditions are as follows.
The films which had undergone the heat treatment(s) were washed with toluene. […] It can be seen that although the fullerene derivatives applied in film form had been soluble in toluene solvent, the derivatives became insoluble, through the heat treatment(s), in the solvent in which the fullerene is soluble.

[5] = cited from earlier work
[6] = after heat treatment (300° C./in air), 10 minutes

N-(4-hydroxyphenyl)-2-n-dodecylpyrrolidine-C60 [Compound 3]
Solubility in toluene [1]: 6% | weight loss attributable to fullerene derivative pyrolysis ([2]; TG in air, result in words): No weight loss attributable to fullerene derivative pyrolysis was observed | weight loss (TG-DTA) ([3]; 600° C. (in nitrogen)): 12% | Solubility in toluene [4, 6]: soluble | Solubility in toluene ([4]; after heat treatment (500° C./in air), 10 minutes): insoluble | Solubility in toluene ([4]; before heat treatment): soluble

c12c3c4c5c1c1c6c7c2c2c8c3c3c9c4c4c%10c5c5c1c1c6c6c%11c7c2c2c7c8c3c3c8c9c4c4c9c%10c5c5c1c1c6c6c%11c2c2c7c3c3c8c4c4c9c5c1c1c6c2c3c41 [[60]fullerene]
temperature of oxidation/combustion (large weight loss with heat generation / large exothermic peak) ([2]; in air): around 500 °C | solubility of [60]fullerene in the solvent ([5]; 1,2,3-trimethylbenzene): 4700 µg/mL | solubility of [60]fullerene in the solvent ([5]; 1,2,4-trichlorobenzene): 10400 µg/mL | solubility of [60]fullerene in the solvent ([5]; 1,2,4-trimethylbenzene): 17900 µg/mL | solubility of [60]fullerene in the solvent ([5]; 1,3,5-trimethylbenzene): 1500 µg/mL | solubility of [60]fullerene in the solvent ([5]; 1-methylnaphthalene): 33200 µg/mL | solubility of [60]fullerene in the solvent ([5]; 1-phenylnaphthalene): 50000 µg/mL | solubility of [60]fullerene in the solvent ([5]; N-methyl-2-pyrrolidone): 890 µg/mL | solubility of [60]fullerene in the solvent ([5]; bromobenzene): 2800 µg/mL | solubility of [60]fullerene in the solvent ([5]; chlorobenzene): 5700 µg/mL | solubility of [60]fullerene in the solvent ([5]; chloroform): 500 µg/mL | solubility of [60]fullerene in the solvent ([5]; cyclohexane): 50 µg/mL | solubility of [60]fullerene in the solvent ([5]; decalin): 4600 µg/mL | solubility of [60]fullerene in the solvent ([5]; dichloromethane): 250 µg/mL | solubility of [60]fullerene in the solvent ([5]; ethylbenzene): 2600 µg/mL | solubility of [60]fullerene in the solvent ([5]; m-dichlorobenzene): 2400 µg/mL | solubility of [60]fullerene in the solvent ([5]; m-xylene): 1400 µg/mL | solubility of [60]fullerene in the solvent ([5]; n-decane): 70 µg/mL | solubility of [60]fullerene in the solvent ([5]; n-dodecane): 90 µg/mL | solubility of [60]fullerene in the solvent ([5]; n-hexane): 40 µg/mL | solubility of [60]fullerene in the solvent ([5]; n-tetradecane): 126 µg/mL | solubility of [60]fullerene in the solvent ([5]; o-dichlorobenzene): 24600 µg/mL | solubility of [60]fullerene in the solvent ([5]; o-xylene): 8700 µg/mL | solubility of [60]fullerene in the solvent ([5]; p-xylene): 5900 µg/mL | solubility of [60]fullerene in the solvent ([5]; quinoline): 7200 µg/mL | solubility of [60]fullerene in the solvent ([5]; tetrahydrofuran): 37 µg/mL | solubility of [60]fullerene in the solvent ([5]; toluene): 2900 µg/mL | solubility of [60]fullerene in the solvent ([5]; xylene): 5200 µg/mL

C60 (t-Butoxycarbonylmethylpiperazine)4(O) [Compound 6]
Solubility in toluene [1]: ≥ 10% | weight loss (TG-DTA) [2]: 38% | temperature of weight loss attributable to pyrolysis of the fullerene derivative ([2]; in air): around 200 °C | weight loss (TG-DTA) ([3]; 300° C. (in nitrogen)): 50% | temperature of weight loss attributable to pyrolysis, compared with air [3]: almost the same temperature as in air

C60(tBu-isonipecotate)4(O) [Compound 5]
Solubility in toluene [1]: ≥ 10% | weight loss (TG-DTA) [2]: 37% | temperature of weight loss attributable to pyrolysis of the fullerene derivative ([2]; in air): around 200 °C | weight loss (TG-DTA) ([3]; 300° C. (in nitrogen)): 44% | temperature of weight loss attributable to pyrolysis, compared with air [3]: almost the same temperature as in air | Solubility in toluene [4, 6]: insoluble | Solubility in toluene ([4]; before heat treatment): soluble
